# Patent publication US11061017B2, “High throughput and functional screening method for muscle related disorders and biological processes” (CYTOO, priority 2015, dated 2021)
# What was measured:
# [1] = test system: myotubes from healthy donor; assay: Inhibition of calcium release after acetylcholine or 4-chloro-m-cresol induction (Fluo-4); type: cell-based, human; conditions: tubocurarine 100 μM, succinylcholine 25 μM; for effect on 4-chloro-m-cresol induction of calcium release: 4-chloro-m-cresol 400 μM induction; for decrease of relative fluorescence intensity after acetylcholine induction: acetylcholine 20 μM induction, inhibitor added 15 minutes before, verapamil, nifedipine, nicardipine 40 μM
# Procedure: (§1) As myotube shortening can also take origin from compound toxicity, physiological cues of myotube contraction need to be validated. Hit validation is performed using a secondary assay estimating the level of calcium release to myotube cytoplasm. Myotubes differentiated from donors are cultured during 5 days and stained with a calcium sensitive florescent probe Fluo-4 (2 μM) in a dedicated buffer (145 mM NaCl, 5 mM KCl, 1 mM CaCl2, 1 mM MgCl2, 5.6 mM glucose, 10 mM Hepes, pH 7.4). A single compound is added to cultured myotubes and a time-lapse acquisition is performed during 30 seconds (Eclipse-Ti, Nikon), by taking a picture each second, to follow the increase in fluorescence intensity of the probe due to calcium entry into the cytoplasm. After fluorescence background removal, a relative fluorescence intensity is calculated in the whole myotubes for each timepoint, normalizing to the first value set up at 100%.
# Myoblasts are differentiated during 5 days in culture, then potential inhibitors are added in calcium buffer 15 minutes before an acethycholine treatment. […] Moreover mode of action characterization can be optimized by comparing a compound effect on both acethycholine and 4-chloro-m-cresol inductions. […] Even if a time-lapse method is described here using a classical widefield microscope, this embodiment of the invention is fully compatible with kinetic plate readers systems allowing automated calcium flow measurements, including the Hamamatsu FDSS.
# myotubes from DMD donors = assay: DMD myotube morphology rescue assay; type: cell-based, human; conditions: for increase of fusion index in DMD myotubes / increase of tube number in DMD myotubes: prednisone 500 nM, deflazacort 50 nM
# Procedure: Using previously described protocol, human primary myoblasts, are cultured on fibronectin coated surfaces within growth medium during 24 hours. Then cells are cultured within differentiation medium (DMEM/F12, 2% Horse Serum, 0.5% P/S) for 24 hours. Therapeutic drug candidates are added and myotubes are then cultured during 96 hours. Cells are fixed and an immunostaining is realized against troponin T and nuclei. Images are acquired using an Operetta high content imaging system (PerkinElmer). Automated image processing was been developed by the inventors using the Acapella software library (PerkinElmer).
# [2] = test system: myotubes from a healthy donor with chemically induced atrophy; assay: Atrophy induction and atrophy rescue assay (muscle disuse or wasting model); type: cell-based, human; conditions: for reduction of myotube area (atrophy induction) / rescue of atrophy induced by dexamethasone: dexamethasone 100 μM; for reduction of myotube area (atrophy induction) / rescue of atrophy induced by myostatin: myostatin 4.8 nM; for reduction of myotube area (atrophy induction) / rescue of atrophy induced by IL1-β: IL1-β 1.16 nM; for reduction of myotube area (atrophy induction) / rescue of atrophy induced by TNF-α: TNF-α 115 pM; for reduction of myotube area (atrophy induction): 96 hours; for rescue of atrophy induced by IL1-β / rescue of atrophy induced by TNF-α / rescue of atrophy induced by dexamethasone / rescue of atrophy induced by myostatin: IGF-1 18.75 nM, trichostatin A 300 nM
# From the text: Another possible application is to mimic muscle wasting disorders (cachexia, sarcopenia) by chemically inducing atrophy on myotubes from healthy donors and then to screen compounds potentially rescuing the atrophic phenotype. As patients suffering from a large decrease in muscle mass, primary myoblast samples or myofibers can't be collected for ethical reasons and artificial in vitro strategies are necessary. Nonetheless, signaling pathways impacted in cachexia and sarcopenia are well described in the literature implicating three major cascades: glucocorticoid, Smad2/3 and the NF-κB pathway. Molecules known to reproduce these molecular mechanisms can therefore be used to simulate pathological myotubes. For example, glucocorticoid pathway can be mimicked by dexamethasone treatment, Smad2/3 pathway by myostatin and TGF-β treatments, and NF-κB pathway by IL1-β and TNF-α treatments.
# To do so, human primary myoblasts (HSMM, Lonza), from a healthy donor, are cultured on fibronectin coated surfaces within growth medium (Lonza SkGM™-2 cell culture Kit) during 24 hours. Then cells are cultured within differentiation medium (DMEM/F12, 2% Horse Serum, 0.5% P/S) for 24 hours. Candidates with potential rescue effect are added to the forming myotubes 15 minutes before the atrophic inducer. Then myotubes are cultured during 96 hours. Cells are fixed and an immunostaining is realized against troponin T and nuclei. Images are acquired using an Operetta high content imaging system (PerkinElmer). Automated image processing has been developed by the inventors using the Acapella software library (PerkinElmer).
# [3] = test system: myotubes differentiated from healthy donors; assay: Morphology assay (myotube area and nuclei count, dose response); type: cell-based, human; conditions: 96 hours, compared to untreated control
# Procedure: Human primary myoblasts (HSMM, Lonza), from a healthy donor, are cultured on fibronectin coated surfaces within growth medium (Lonza SkGM™-2 cell culture Kit) during 24 hours. Then cells are cultured within differentiation medium (DMEM/F12, 2% Horse Serum, 0.5% P/S) for 24 hours. Compounds are added to the forming myotubes during 96 hours. Cells are fixed and an immunostaining is realized against troponin T and nuclei. Images are acquired using an Operetta high content imaging system (PerkinElmer).
# In order to characterize compounds mode of action on the myotube model (including myoblasts differentiation, myotube maturation, myotube hypertrophy, myotube atrophy, or cell viability), automated image segmentation and analysis methods has been developed by the inventors using the Acapella software library (PerkinElmer).
# First, customized segmentations of myotubes and nuclei are performed.
# Second, objects are analyzed to extract basic parameters such as myotube count, nuclei count, myotube morphology (including their length, width, area, and orientation), fusion index (through the percentage nuclei within myotubes). Taking said parameters into account, aberrant myotubes are removed.
# [4] = test system: myotubes from healthy and type I diabetes donors; assay: Morphology of myotubes from healthy and type I diabetes donors; type: cell-based, human; conditions: insulin 10 μM
# Procedure: (§2) Human primary myoblasts from a healthy or a type I diabetic donor, are cultured on fibronectin coated surfaces within growth medium during 24 hours. Then cells are cultured within differentiation medium (DMEM/F12, 2% Horse Serum, 0.5% P/S) for 24 hours. Therapeutic drug candidates are added and myotubes are then cultured during 96 hours. Compound effect on glucose metabolism is performed by using the indications provided by the manufacturer (Glucose Uptake Colorimetric Assay Kit, Sigma).
# FIG. 10 is a quantification of some relevant morphological parameters, as tube number, fusion index, tube area tube width, of myotubes from healthy and type I diabetes donors, cultured in control and insulin (10 μM) conditions according to the invention. […] This illustrates the specificity of metabolisms assays on compounds detection and the complementarity of the approaches to detect new drugs rescuing specifically metabolic disorders.
# [5] = test system: myotubes differentiated from myoblasts of healthy donors; assay: Glucose metabolism assay (Glucose Uptake Colorimetric Assay Kit); type: cell-based, human
# Procedure: as §2
# [6] = test system: myotubes differentiated from healthy donors; assay: Calcium release assay in myotubes (Fluo-4 time-lapse), inducers; type: cell-based, human; conditions: acetylcholine 20 μM, caffeine 10 mM, IGF-1 37 nM, 30 seconds time-lapse
# Procedure: as §1
# [7] = test system: myotubes differentiated from healthy donors (human primary myoblasts HSMM, Lonza); assay: Myotube shortening assay (contraction induction, troponin T immunostaining, image analysis); type: cell-based; conditions: 4-chloro-m-cresol 1.5 mM, 3 minutes
# Procedure: Human primary myoblasts (HSMM, Lonza) are cultured on fibronectin coated surfaces within growth medium (Lonza SkGM™-2 cell culture Kit) during 24 hours. Then cells are cultured within differentiation medium (DMEM/F12, 2% Horse Serum, 0.5% P/S) for 5 days. Compounds (4-chloro-m-cresol, 1.5 mM) are added to myotubes during 3 minutes. Cells are fixed and an immunostaining is realized against troponin T and nuclei. Images are acquired using an Operetta high content imaging system (PerkinElmer). Automated image segmentation and analysis methods has been developed by the inventors using the Acapella software library (PerkinElmer). Then, objects are analyzed to extract basic parameters such as myotube count, nuclei count, myotube morphology (including their length, width, area), fusion index (through the percentage nuclei embedded within myotubes). However, the main descriptor of myotube shortening is the quantification of the number of spots, which are objects obtained due to myotube detachment from the culture device and subsequent folding of at least one extremity of the myotube on itself (FIG. 2B, right). Taking said parameters into account, aberrant myotubes are removed. An advanced descriptor is additionally measured, as the number of myotubes encompassing a length lower than 470 μm. […] As myotubes treatment with 4-chloro-m-cresol induces 25% decrease in tube area, and 50% increase in staining intensity readouts, the use of spot number quantification largely increases the assay window (1000%) with a reduced variability, ensuring a full compatibility of the assay with compounds screening (Z′-factors higher than 0.7).
compound,measurement,setting,value
"COc1cc2c3cc1Oc1cc(ccc1O)C[C@@H]1c4c(cc(OC)c(O)c4Oc4ccc(cc4)C[C@@H]3N(C)CC2)CC[N+]1(C)C [Tubocurarine, tubocurarine]",effect on 4-chloro-m-cresol induction of calcium release,[1],0%
same,decrease of relative fluorescence intensity after acetylcholine induction,[1],96%
CC(=O)OCC(=O)[C@@]12N=C(C)O[C@@H]1C[C@H]1[C@@H]3CCC4=CC(=O)C=C[C@]4(C)[C@H]3[C@@H](O)C[C@@]12C [deflazacort],increase of fusion index in DMD myotubes,myotubes from DMD donors,59%
same,increase of tube number in DMD myotubes,myotubes from DMD donors,54%
C[C@@H]1C[C@H]2[C@@H]3CCC4=CC(=O)C=C[C@]4(C)[C@@]3(F)[C@@H](O)C[C@]2(C)[C@@]1(O)C(=O)CO [dexamethasone],reduction of myotube area (atrophy induction),[2],60%
"myostatin: atrophic reference compound, Smad2/3 pathway",reduction of myotube area (atrophy induction),[2],30%
same,effect on nuclei count,[3],decrease in nuclei count
TNF-α,reduction of myotube area (atrophy induction),[2],55%
Insulin,"effect on myotube morphology (tube number, fusion index, tube area, tube width)",[4],does not modify myotube morphology
same,increase of glucose metabolism,[5]; insulin 10 μM,67%
"IL1-β: atrophy inducer, NF-κB pathway",reduction of myotube area (atrophy induction),[2],35%
Cn1c(=O)c2c(ncn2C)n(C)c1=O [caffeine],increase of relative fluorescence intensity (calcium release) compared to steady state level,[6],55%
Cc1cc(O)ccc1Cl [4-chloro-m-cresol],"spot number quantification, assay window",[7],1000%
same,decrease in tube area,[7]; myotubes cultured 5 days,25%
same,increase in staining intensity,[7]; troponin T staining,50%
"CC(=O)OCC[N+](C)(C)C [acethylcholine, acetylcholine]",increase of relative fluorescence intensity (calcium release) compared to steady state level,[6],305%
"C[C@]12C=CC(=O)C=C1CC[C@@H]1[C@@H]2C(=O)C[C@@]2(C)[C@H]1CC[C@]2(O)C(=O)CO [Prednisone, prednisone]",increase of fusion index in DMD myotubes,myotubes from DMD donors,28%
same,increase of tube number in DMD myotubes,myotubes from DMD donors,20%
CC(/C=C/C(=O)NO)=C\[C@@H](C)C(=O)c1ccc(N(C)C)cc1 [trichostatin A],rescue of atrophy induced by IL1-β,[2],54%
same,rescue of atrophy induced by TNF-α,[2],100%
same,rescue of atrophy induced by dexamethasone,[2],175%
same,rescue of atrophy induced by myostatin,[2],71%
same,effect on myotube area,[3],atrophy/hypertrophy biphasic effects
COC(=O)C1=C(C)NC(C)=C(C(=O)OCCN(C)Cc2ccccc2)C1c1cccc([N+](=O)[O-])c1 (stereo not drawn) [nicardipine],decrease of relative fluorescence intensity after acetylcholine induction,[1],91%
"TGF-β: atrophic reference compound, Smad2/3 pathway",effect on myotube area,[3],atrophic
same,effect on nuclei count,[3],without nuclei count alteration
IGF-1: hypertrophic reference compound,rescue of atrophy induced by IL1-β,[2],85%
same,rescue of atrophy induced by TNF-α,[2],89%
same,rescue of atrophy induced by dexamethasone,[2],275%
same,rescue of atrophy induced by myostatin,[2],71%
same,increase of relative fluorescence intensity (calcium release) compared to steady state level,[6],20%
same,rescue of fusion index in DMD myotubes,"myotubes from DMD donors; IGF-1 37 nM, 96 hours",204%
same,rescue of myotube width in DMD myotubes,"myotubes from DMD donors; IGF-1 37 nM, 96 hours",15%
same,rescue of tube number in DMD myotubes,"myotubes from DMD donors; IGF-1 37 nM, 96 hours",109%
same,effect on glucose uptake,[5]; IGF-1 37 nM,no effect
same,effect on myotube area,[3],hypertrophic
same,effect on nuclei count,[3],without nuclei count alteration
C[N+](C)(C)CCOC(=O)CCC(=O)OCC[N+](C)(C)C [succinylcholine],effect on 4-chloro-m-cresol induction of calcium release,[1],−30%
same,decrease of relative fluorescence intensity after acetylcholine induction,[1],94%
